Results from patent US6689773B2, “Uracil substituted phenyl sulfamoyl carboxamides” (BASF Aktiengesellschaft, priority 2000, dated 2004).

Experiments:
Format in all cases: in vivo
[1] = test system: ECHCG, Barnyardgrass, Echinochloa crusgalli, (L.)Beau; assay: Preemergence herbicidal evaluation (Example 148); conditions: rating scale 0-9, two to four weeks after treatment
Outline: (§1)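 Applied: aqueous acetone solution, ~0.125–0.250 kg/ha, sprayed on soil just after seeding. Read: visual plant appearance against control, 2–4 weeks post-spray.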

[2] = test system: DIGSA, Crabgrass, (Hairy) L, Digitaria sanguinalis, (L)Scop; assay: Preemergence herbicidal evaluation (Example 148); conditions: rating scale 0-9, two to four weeks after treatment
Outline: as §1

[3] = test system: ZEAMX, Field corn, Zea mays L.; assay: Preemergence herbicidal evaluation (Example 148); conditions: rating scale 0-9, two to four weeks after treatment
Outline: as §1

[4] = test system: AMBEL, Ragweed, Common, Ambrosia artemiisifolia, L.; assay: Preemergence herbicidal evaluation (Example 148); conditions: rating scale 0-9, two to four weeks after treatment
Outline: as §1

[5] = test system: GLXMA, Soybean, Glycine max, (L.) Merr.; assay: Preemergence herbicidal evaluation (Example 148); conditions: rating scale 0-9, two to four weeks after treatment
Outline: as §1

[6] = test system: TRZAW, Winter wheat, Tritium Aestivum, L. (Winter); assay: Preemergence herbicidal evaluation (Example 148); conditions: rating scale 0-9, two to four weeks after treatment
Outline: as §1

[7] = test system: IPOHE, Morningglory, Ivyleaf, Ipomoea hederacea, (L)Jacq.; assay: Preemergence herbicidal evaluation (Example 148); conditions: rating scale 0-9, two to four weeks after treatment
Outline: as §1

[8] = test system: ABUTH, Velvetleaf, Abutilon theophrasti, Medic.; assay: Preemergence herbicidal evaluation (Example 148); conditions: rating scale 0-9, two to four weeks after treatment
Outline: as §1

[9] = test system: CHEAL, Lambsquarters, Chenopodium album, L. Common; assay: Preemergence herbicidal evaluation (Example 148); conditions: rating scale 0-9, two to four weeks after treatment
Outline: as §1

[10] = test system: XANST, Cocklebur, Xanthium strumariam; assay: Preemergence herbicidal evaluation (Example 148); conditions: rating scale 0-9, two to four weeks after treatment
Outline: as §1

[11] = test system: SETVI, Green foxtail, Setaria viridis, (L.)Beau; assay: Preemergence herbicidal evaluation (Example 148); conditions: rating scale 0-9, two to four weeks after treatment
Outline: as §1

[12] = test system: ALOMY, Blackgrass, Alopecurus myosuroides; assay: Preemergence herbicidal evaluation (Example 148); conditions: rating scale 0-9, two to four weeks after treatment
Outline: as §1

[13] = test system: ECHCG, Barnyardgrass, Echinochloa crusgalli, (L.)Beau; assay: Postemergence herbicidal evaluation (Example 147); conditions: rating scale 0-9, two to three weeks after treatment
Outline: (§2)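 Values are 0-9 visual scores, averaged over repeat tests where available. Seedlings of about two weeks were sprayed with roughly 0.016 to 0.032 kg/ha in 80/20 acetone/water plus 1.0% seed oil, then held in the greenhouse two to three weeks.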

[14] = test system: DIGSA, Crabgrass, (Hairy) L, Digitaria sanguinalis, (L)Scop; assay: Postemergence herbicidal evaluation (Example 147); conditions: rating scale 0-9, two to three weeks after treatment
Outline: as §2

[15] = test system: ZEAMX, Field corn, Zea mays L.; assay: Postemergence herbicidal evaluation (Example 147); conditions: rating scale 0-9, two to three weeks after treatment
Outline: as §2

[16] = test system: AMBEL, Ragweed, Common, Ambrosia artemiisifolia, L.; assay: Postemergence herbicidal evaluation (Example 147); conditions: rating scale 0-9, two to three weeks after treatment
Outline: as §2

[17] = test system: GLXMA, Soybean, Glycine max, (L.) Merr.; assay: Postemergence herbicidal evaluation (Example 147); conditions: rating scale 0-9, two to three weeks after treatment
Outline: as §2

[18] = test system: TRZAW, Winter wheat, Tritium Aestivum, L. (Winter); assay: Postemergence herbicidal evaluation (Example 147); conditions: rating scale 0-9, two to three weeks after treatment
Outline: as §2

[19] = test system: IPOHE, Morningglory, Ivyleaf, Ipomoea hederacea, (L)Jacq.; assay: Postemergence herbicidal evaluation (Example 147); conditions: rating scale 0-9, two to three weeks after treatment
Outline: as §2

[20] = test system: ABUTH, Velvetleaf, Abutilon theophrasti, Medic.; assay: Postemergence herbicidal evaluation (Example 147); conditions: rating scale 0-9, two to three weeks after treatment
Outline: as §2

[21] = test system: CHEAL, Lambsquarters, Chenopodium album, L. Common; assay: Postemergence herbicidal evaluation (Example 147); conditions: rating scale 0-9, two to three weeks after treatment
Outline: as §2

[22] = test system: XANST, Cocklebur, Xanthium strumariam; assay: Postemergence herbicidal evaluation (Example 147); conditions: rating scale 0-9, two to three weeks after treatment
Outline: as §2

[23] = test system: SETVI, Green foxtail, Setaria viridis, (L.)Beau; assay: Postemergence herbicidal evaluation (Example 147); conditions: rating scale 0-9, two to three weeks after treatment
Outline: as §2

[24] = test system: ALOMY, Blackgrass, Alopecurus myosuroides; assay: Postemergence herbicidal evaluation (Example 147); conditions: rating scale 0-9, two to three weeks after treatment
Outline: as §2

CCCCN(C)S(=O)(=O)NC(=O)c1cc(-n2c(=O)cc(C(F)(F)F)n(C)c2=O)c(F)cc1Cl [Example 83]
Preemergence herbicidal rating ECHCG ([1]; rate 0.125 kg/ha): 4.0
Preemergence herbicidal rating ECHCG ([1]; rate 0.25 kg/ha): 5.0
Preemergence herbicidal rating DIGSA ([2]; rate 0.125 kg/ha): 1.0
Preemergence herbicidal rating DIGSA ([2]; rate 0.25 kg/ha): 9.0
Preemergence herbicidal rating ZEAMX ([3]; rate 0.125 kg/ha): 0.0
Preemergence herbicidal rating ZEAMX ([3]; rate 0.25 kg/ha): 2.0
Preemergence herbicidal rating AMBEL ([4]; rate 0.125 kg/ha): 8.0
Preemergence herbicidal rating AMBEL ([4]; rate 0.25 kg/ha): 8.0
Preemergence herbicidal rating GLXMA ([5]; rate 0.125 kg/ha): 1.0
Preemergence herbicidal rating GLXMA ([5]; rate 0.25 kg/ha): 4.0
Preemergence herbicidal rating TRZAW ([6]; rate 0.125 kg/ha): 0.0
Preemergence herbicidal rating TRZAW ([6]; rate 0.25 kg/ha): 0.0
Preemergence herbicidal rating IPOHE ([7]; rate 0.125 kg/ha): 7.0
Preemergence herbicidal rating IPOHE ([7]; rate 0.25 kg/ha): 8.0
Preemergence herbicidal rating ABUTH ([8]; rate 0.125 kg/ha): 8.0
Preemergence herbicidal rating ABUTH ([8]; rate 0.25 kg/ha): 9.0
Preemergence herbicidal rating CHEAL ([9]; rate 0.125 kg/ha): 9.0
Preemergence herbicidal rating CHEAL ([9]; rate 0.25 kg/ha): 9.0
Preemergence herbicidal rating XANST ([10]; rate 0.125 kg/ha): 4.0
Preemergence herbicidal rating XANST ([10]; rate 0.25 kg/ha): 5.0
Preemergence herbicidal rating SETVI ([11]; rate 0.125 kg/ha): 3.0
Preemergence herbicidal rating SETVI ([11]; rate 0.25 kg/ha): 6.0
Preemergence herbicidal rating ALMOY ([12]; rate 0.125 kg/ha): 0.0
Preemergence herbicidal rating ALMOY ([12]; rate 0.25 kg/ha): 0.0
Postemergence herbicidal rating ECHCG ([13]; rate 0.016 kg/ha): 8.0
Postemergence herbicidal rating ECHCG ([13]; rate 0.032 kg/ha): 8.0
Postemergence herbicidal rating DIGSA ([14]; rate 0.016 kg/ha): 3.0
Postemergence herbicidal rating DIGSA ([14]; rate 0.032 kg/ha): 4.0
Postemergence herbicidal rating ZEAMX ([15]; rate 0.016 kg/ha): 5.5
Postemergence herbicidal rating ZEAMX ([15]; rate 0.032 kg/ha): 6.0
Postemergence herbicidal rating AMBEL ([16]; rate 0.016 kg/ha): 6.0
Postemergence herbicidal rating AMBEL ([16]; rate 0.032 kg/ha): 8.0
Postemergence herbicidal rating GLXMA ([17]; rate 0.016 kg/ha): 7.0
Postemergence herbicidal rating GLXMA ([17]; rate 0.032 kg/ha): 7.5
Postemergence herbicidal rating TRZAW ([18]; rate 0.016 kg/ha): 4.5
Postemergence herbicidal rating TRZAW ([18]; rate 0.032 kg/ha): 5.5
Postemergence herbicidal rating IPOHE ([19]; rate 0.016 kg/ha): 8.0
Postemergence herbicidal rating IPOHE ([19]; rate 0.032 kg/ha): 9.0
Postemergence herbicidal rating ABUTH ([20]; rate 0.016 kg/ha): 9.0
Postemergence herbicidal rating ABUTH ([20]; rate 0.032 kg/ha): 9.0
Postemergence herbicidal rating CHEAL ([21]; rate 0.016 kg/ha): 5.0
Postemergence herbicidal rating CHEAL ([21]; rate 0.032 kg/ha): 5.0
Postemergence herbicidal rating XANST ([22]; rate 0.016 kg/ha): 9.0
Postemergence herbicidal rating XANST ([22]; rate 0.032 kg/ha): 9.0
Postemergence herbicidal rating SETVI ([23]; rate 0.016 kg/ha): 7.0
Postemergence herbicidal rating SETVI ([23]; rate 0.032 kg/ha): 8.0
Postemergence herbicidal rating ALMOY ([24]; rate 0.016 kg/ha): 0.0
Postemergence herbicidal rating ALMOY ([24]; rate 0.032 kg/ha): 1.0

CN(CCC#N)S(=O)(=O)NC(=O)c1cc(-n2c(=O)cc(C(F)(F)F)n(C)c2=O)c(F)cc1Cl [Example 84]
Preemergence herbicidal rating ECHCG ([1]; rate 0.125 kg/ha): 5.0
Preemergence herbicidal rating ECHCG ([1]; rate 0.25 kg/ha): 6.0
Preemergence herbicidal rating DIGSA ([2]; rate 0.125 kg/ha): 7.0
Preemergence herbicidal rating DIGSA ([2]; rate 0.25 kg/ha): 8.0
Preemergence herbicidal rating ZEAMX ([3]; rate 0.125 kg/ha): 0.0
Preemergence herbicidal rating ZEAMX ([3]; rate 0.25 kg/ha): 1.0
Preemergence herbicidal rating AMBEL ([4]; rate 0.125 kg/ha): 9.0
Preemergence herbicidal rating AMBEL ([4]; rate 0.25 kg/ha): 9.0
Preemergence herbicidal rating GLXMA ([5]; rate 0.125 kg/ha): 2.0
Preemergence herbicidal rating GLXMA ([5]; rate 0.25 kg/ha): 7.0
Preemergence herbicidal rating TRZAW ([6]; rate 0.125 kg/ha): 0.0
Preemergence herbicidal rating TRZAW ([6]; rate 0.25 kg/ha): 2.0
Preemergence herbicidal rating IPOHE ([7]; rate 0.125 kg/ha): 9.0
Preemergence herbicidal rating IPOHE ([7]; rate 0.25 kg/ha): 9.0
Preemergence herbicidal rating ABUTH ([8]; rate 0.125 kg/ha): 9.0
Preemergence herbicidal rating ABUTH ([8]; rate 0.25 kg/ha): 9.0
Preemergence herbicidal rating CHEAL ([9]; rate 0.125 kg/ha): 9.0
Preemergence herbicidal rating CHEAL ([9]; rate 0.25 kg/ha): 9.0
Preemergence herbicidal rating XANST ([10]; rate 0.125 kg/ha): 9.0
Preemergence herbicidal rating XANST ([10]; rate 0.25 kg/ha): 9.0
Preemergence herbicidal rating SETVI ([11]; rate 0.125 kg/ha): 7.0
Preemergence herbicidal rating SETVI ([11]; rate 0.25 kg/ha): 7.0
Preemergence herbicidal rating ALMOY ([12]; rate 0.125 kg/ha): 0.0
Preemergence herbicidal rating ALMOY ([12]; rate 0.25 kg/ha): 1.0
Postemergence herbicidal rating ECHCG ([13]; rate 0.016 kg/ha): 8.0
Postemergence herbicidal rating ECHCG ([13]; rate 0.032 kg/ha): 9.0
Postemergence herbicidal rating DIGSA ([14]; rate 0.016 kg/ha): 5.0
Postemergence herbicidal rating DIGSA ([14]; rate 0.032 kg/ha): 6.0
Postemergence herbicidal rating ZEAMX ([15]; rate 0.016 kg/ha): 7.0
Postemergence herbicidal rating ZEAMX ([15]; rate 0.032 kg/ha): 8.0
Postemergence herbicidal rating AMBEL ([16]; rate 0.016 kg/ha): 8.0
Postemergence herbicidal rating AMBEL ([16]; rate 0.032 kg/ha): 9.0
Postemergence herbicidal rating GLXMA ([17]; rate 0.016 kg/ha): 7.0
Postemergence herbicidal rating GLXMA ([17]; rate 0.032 kg/ha): 8.5
Postemergence herbicidal rating TRZAW ([18]; rate 0.016 kg/ha): 5.0
Postemergence herbicidal rating TRZAW ([18]; rate 0.032 kg/ha): 5.5
Postemergence herbicidal rating IPOHE ([19]; rate 0.016 kg/ha): 9.0
Postemergence herbicidal rating IPOHE ([19]; rate 0.032 kg/ha): 9.0
Postemergence herbicidal rating ABUTH ([20]; rate 0.016 kg/ha): 9.0
Postemergence herbicidal rating ABUTH ([20]; rate 0.032 kg/ha): 9.0
Postemergence herbicidal rating CHEAL ([21]; rate 0.016 kg/ha): 7.0
Postemergence herbicidal rating CHEAL ([21]; rate 0.032 kg/ha): 9.0
Postemergence herbicidal rating XANST ([22]; rate 0.016 kg/ha): 9.0
Postemergence herbicidal rating XANST ([22]; rate 0.032 kg/ha): 9.0
Postemergence herbicidal rating SETVI ([23]; rate 0.016 kg/ha): 7.0
Postemergence herbicidal rating SETVI ([23]; rate 0.032 kg/ha): 8.0
Postemergence herbicidal rating ALMOY ([24]; rate 0.016 kg/ha): 1.0
Postemergence herbicidal rating ALMOY ([24]; rate 0.032 kg/ha): 2.0
